This is an account of results in article PMC5577105, “A New Chimeric Natriuretic Peptide, CNAAC, for the Treatment of Left Ventricular Dysfunction after Myocardial Infarction” (Scientific Reports, 2017).

Data set [1] concerns myocardial infarction rats (left anterior descending coronary artery ligation). The data set can be described thus: Tissue weights / cardiac hypertrophy after myocardial infarction. The format is in vivo, rat. The conditions noted are these: MI rats, NP 20 nmol/kg i.p. every 2 days for 4 weeks; mean ± SEM, n = 6. On the procedure: (§1) The Sham and MI animal model were established as described by Johns TN et al.[24], [25] […] The chest was closed immediately. Only a thoracotomy and closure were performed in the sham group. From the day of surgery, 0.85% NaCl or NPs (20 nmol/kg) were administered to these groups (i.p), one injection every two days and lasted for four weeks. Four weeks later, the cardiac function was measured by Doppler echocardiography under anesthesia with pentobarbital sodium (40 mg/kg i.p.). A 12 MHz linear probe (Vevo2100, VisualSonics, Inc., CAN) was used to perform the transthoracic echocardiography. Left ventricular (LV) ejection fraction (EF), LV fraction shortening (FS), LV end diastolic diameter (LVEDd), and left ventricular end systolic diameter (LVESd) were measured. All examinations were performed in a blinded state.
(§2) The day after echocardiography was performed; rats in each group were weighed and anesthetized via a peritoneal injection of pentobarbital sodium (40 mg/kg i.p.). Supplemental doses of sodium pentobarbital were given when needed to maintain uniform anesthesia. A micro catheter was inserted into the left ventricle through the right […], and left ventricular systolic pressure (LVSP), left ventricular end diastolic pressure (LVEDP), and ± dp/dtmax were recorded by the BL-420F BioData Acquisition & Analysis Systems (TME Technology Co, Ltd, Chengdu, China). At the end of the experiment, blood was sampled and the following parameters were recorded: heart weight (HW), left ventricle weight (LVW), and lung weight (LW).

Data set [2] shares this test system. Kind of data set: Cardiac hemodynamics after myocardial infarction. The class given is in vivo, rat. Conditions: MI rats, NP 20 nmol/kg i.p. every 2 days for 4 weeks, anesthetized, LV catheter, mean ± SEM, n = 6; for +dp/dtmax / −dp/dtmax: in mmHg/s. How it is done:
as §1, §2

Data set [3] has the same test system. The data set can be described thus: Serum humoral factors by ELISA after myocardial infarction. The class given is in vivo. Conditions: NP 20 nmol/kg i.p. every 2 days for 4 weeks, rat ELISA, n = 6. On the procedure: as §1, with “0.85% NaCl; 20 nmol/kg·2d; n = 6). The Sham” for “The Sham”, “blinded state. Blood samples were centrifuged (4000 rpm, 15 min) and the serum was separated. Serum BNP, Ang II, ALD, ET-1, cGMP levels were detected with rat ELISA kits (Lianshuo, Shanghai, China).” for “blinded state.”
In general terms: An ELISA detects its analyte on a solid surface through an enzyme-linked reagent.

For data set [4] the following is noted: rat, in vivo, iv.
Method: To determine the metabolic status of NPs in circulation, blood was collected from rats after a bolus injection of NPs. Rats were anesthetized with pentobarbital sodium (40 mg/kg i.p). One microcatheter was inserted into the left jugular vein to administer NPs, and another one was inserted into the right carotid artery to collect blood. After the surgery was completed, rats were allowed to stabilize for 15 min. Human ANP, CNP, VNP, or CNAAC at a concentration of 40 nmol/kg was administered in a bolus fashion (0.1 ml). Blood (0.5 ml) was sampled 5, 10, 20, and 30 min after the bolus injection. The samples from the plasma were analyzed using LT-20AT High-Performance-Liquid-Chromatography (HPLC) (Shimadzu, Tokyo, Japan). A linear gradient (Buffer A: acetonitrile with 0.05% trifluoroacetic acid; Buffer B: double distilled water with 0.05% trifluoroacetic acid)[36] was used for both analyses to separate peptides on an Inertsil OSD-3 (250 mm × 4.6 mm, 5 µm) chromatographic column (Shimadzu, Tokyo, Japan) and a Water Quatro-premier tandem quadrupole mass spectrometry and Alliance 2695 chromatographic system (Waters, Milford, Massachusetts, USA). Peak areas have been calculated with the Masslynx 4.1 software from Waters. […] Each experiment was conducted in duplicate, whereby duplicates are defined as two different vials.
On the set-up of data set [5]: method as in PMID 18205700. The conditions noted are these: in circulation; cited from earlier work.

On to C-type natriuretic peptide [CNP], for which, in data set [1], the “BW (body weight)” value was 347 ± 10 g, the “HW (heart weight)” value turned out to be 1072 ± 84 mg, the “LVW (left ventricular weight)” value turned out to be 492 ± 24 mg and the “LW (lung weight)” value was found to be 2190 ± 149 mg. Further, in data set [2], the Heart rate came out at 443 ± 21 bpm, the LVEDP is 6.5 ± 1.5 mm Hg, the LVSP was found to be 122.7 ± 4.8 mm Hg and the “+dp/dtmax” value turned out to be 4025 ± 289. In addition, the “−dp/dtmax” value in data set [2] worked out at 3917 ± 250. Besides, in data set [3], the “serum level of Ang II, change vs. MI group” value is recorded as “decreased”; the “serum level of ET-1, change vs. MI group” value is recorded as “decreased”; the “serum level of cGMP, change vs. MI group” value is recorded as “increased”.

Turning to atrial natriuretic peptide [ANP], in data set [1], the “BW (body weight)” value is 362 ± 8 g, the “HW (heart weight)” value stood at 1010 ± 39 mg, the “LVW (left ventricular weight)” value came out at 492 ± 24 mg and the “LW (lung weight)” value was 2094 ± 188 mg. Besides, in data set [2], the Heart rate worked out at 437 ± 15 bpm, the LVEDP is reported as 7.2 ± 1.8 mm Hg, the LVSP was found to be 112.5 ± 3.9 mm Hg and the “+dp/dtmax” value was 3651 ± 320. In data set [2], the “−dp/dtmax” value was found to be 3424 ± 453. In addition, in data set [3], the “serum level of ALD, change vs. MI group” value is given as “decreased”; the “serum level of Ang II, change vs. MI group” value is “decreased”; the “serum level of ET-1, change vs. MI group” value is listed as “decreased”; the “serum level of cGMP, change vs. MI group” value is “increased”. In addition, in data set [4], the “NP remaining at 10 min” value amounted to 32.7%, the “NP remaining at 20 min” value was “Less than 10%” and the “NP remaining at 30 min” value is recorded as “completely degraded”.

With brain natriuretic peptide [BNP], the circulating half-life entry in data set [5] is “approximately 23 min”.
